Like-named read-outs stand apart in the source and are kept apart here.
Assays:
U87MG cells = assay: Antiproliferative activity, 2D monolayer, SRB assay; type: cell-based, human; settings: for PI (phototoxicity index) 2D: IC50 dark / IC50 420 nm irradiated; for IC50: U87MG 2D monolayer, 90 min treatment, SRB
Protocol: The antiproliferative activity of the compounds under investigation was assessed using the Sulforhodamine B (SRB) assay on both 2D cell monolayers and 3D spheroids. For the 2D cell monolayer assay, cells were seeded in 96-well tissue culture plates at a density of 3 × 10^3 cells/well in 100 μL of culture medium. Following overnight incubation in a humidified CO2 incubator, the medium was replaced, and the cells were treated with the investigated compounds in a final volume of 200 μL/well of Earle’s Balanced Salt Solution (EBSS). The cells were then exposed to the tested compounds for 1.5 h under dark conditions (5% CO2, 37 °C) and subsequently irradiated with blue light (420 nm) for 30 min at an intensity of 58 W/m^2. After treatment, the samples were washed with Phosphate-Buffered Saline (PBS) and replenished with 200 μL of culture medium. Following an additional 70-h incubation, the cells were washed with PBS, fixed with trichloroacetic acid at 4 °C for 1 h, and stained with 0.4% SRB dye for 30 min. The stained cells were dissolved with Tris (10 mM), and the cell viability was assessed by measuring the absorbance at 570 nm using an Absorbance Reader (SPARK TECAN, SCHOELLER). […] After the 72-h spheroid formation period, the samples were treated and irradiated as described for the 2D cultures. […] The luminescence signal was detected using the plate reader SPARK (Tecan, Manedorf, Switzerland), and the IC50 values were calculated from the survival curves. All experiments were conducted in triplicate to ensure the reliability and reproducibility of the results. Furthermore, the concentrations of the compounds in the medium during the treatment were verified using Flame Atomic Absorption Spectroscopy (FAAS) or Inductively Coupled Plasma Mass Spectrometry (ICP-MS). […]
drug-free incubation. c IC50 values were determined by SRB assay. d IC50 values were determined by CellTiter-Glo® 3D chemiluminescent assay. e PI - phototoxicity index was calculated as the ratio of IC50 determined under the dark conditions / IC50 determined for 420 […]
models under irradiation conditions.

U87MG spheroids = assay: Antiproliferative activity, 3D spheroids, CellTiter-Glo 3D assay; type: cell-based, human; settings: for PI (phototoxicity index) 3D: IC50 dark / IC50 420 nm irradiated; for IC50: U87MG 3D spheroids, 90 min treatment, CellTiter-Glo 3D; for TMI (3D/2D): ratio of IC50 for 3D and 2D models under irradiation
Protocol: The antiproliferative activity of the compounds under investigation was assessed using the Sulforhodamine B (SRB) assay on both 2D cell monolayers and 3D spheroids. For the 2D cell monolayer assay, cells were seeded in 96-well tissue culture plates at a density of 3 × 10^3 cells/well in 100 μL of culture medium. Following overnight incubation in a humidified CO2 incubator, the medium was replaced, and the cells were treated with the investigated compounds in a final volume of 200 μL/well of Earle’s Balanced Salt Solution (EBSS). The cells were then exposed to the tested compounds for 1.5 h under dark conditions (5% CO2, 37 °C) and subsequently irradiated with blue light (420 nm) for 30 min at an intensity of 58 W/m^2. After treatment, the samples were washed with Phosphate-Buffered Saline (PBS) and replenished with 200 μL of culture medium. Following an additional 70-h incubation, the cells were washed with PBS, fixed with trichloroacetic acid at 4 °C for 1 h, and stained with 0.4% SRB dye for 30 min. The stained cells were dissolved with Tris (10 mM), and the cell viability was assessed by measuring the absorbance at 570 nm using an Absorbance Reader (SPARK TECAN, SCHOELLER). The absorbance readings were then converted to the percentage of control (% cell survival), and the antiproliferative effects were expressed as IC50 values, which were calculated from curves plotting cell survival (%) versus drug concentration (μM) (IC50 = the concentration of the agent that inhibits cell growth by 50%). For experiments with 3D spheroids, 2500 single cells/well were seeded on ultralow attachment U-shape 96-well plates (Corning, USA) and cultured for 72 h in 3D forming medium DMEM-F12 ham medium supplemented with growth and spheroid forming factors: 2% B27 (Thermo Fisher Scientific Inc., MA, USA), epidermal growth factor (EGF; Sigma-Aldrich, Germany, 20 ng mL^–1), fibroblast growth factor (FGF2; Sigma-Aldrich, Germany, 10 ng mL^–1), and BSA (0.15%). After the 72-h spheroid formation period, the samples were treated and irradiated as described for the 2D cultures. Subsequently, the samples were cultured in the 3D forming medium for an additional 70 h, and the antiproliferative potency of the tested compounds against spheroids was determined by assessing changes in IC50 values using the CellTiterGlo-3D assay (Promega). The luminescence signal was detected using the plate reader SPARK (Tecan, Manedorf, Switzerland), and the IC50 values were calculated from the survival curves. All experiments were conducted in triplicate to ensure the reliability and reproducibility of the results. Furthermore, the concentrations of the compounds in the medium during the treatment were verified using Flame Atomic Absorption Spectroscopy (FAAS) or Inductively Coupled Plasma Mass Spectrometry (ICP-MS).
The antiproliferative activity (IC50 valuesa) of the investigated compounds determined in 2D and 3D models of U87MG cellsb
Dark Irradiated PId Dark Irradiated PIe (3D/2D) […]
a Concentration that causes 50% inhibition of cell proliferation. b Cell monolayer or generated 3D spheroids were treated for 90 min with increasing concentrations of the investigated compounds, followed by 30 min of irradiation with blue light (420 nm; 58 Wm-2) and 70 h of drug-free incubation. c IC50 values were determined by SRB assay. d IC50 values were determined by CellTiter-Glo® 3D chemiluminescent assay. e PI - phototoxicity index was calculated as the ratio of IC50 determined under the dark conditions / IC50 determined for 420 […]
f TMI – tissue-mass index was calculated as the ratio of IC50 values determined for 3D and 2D models under irradiation conditions.

[1] = Stability in the dark by UV/vis spectroscopy; type: physicochemical; settings: DMSO, water, cell culture medium (RPMI), presence of glutathione; up to 24h
Protocol: The stability of complex Ir10 was studied in DMSO, water (1% DMSO), and RPMI (5% DMSO) using UV/vis spectroscopy at different times in the absence and presence of GSH (10 mM) or NADH (100 μM) to mimic the cellular and physiological conditions (Figure S6).

[2] = dark, 70 h drug-free incubation, read-out: IC50 2D Dark
[3] = 30 min blue light 420 nm 58 W m-2, 70 h drug-free, read-out: IC50 2D Irradiated
[4] = dark, 70 h drug-free, read-out: IC50 3D Dark
[5] = 30 min blue light 420 nm 58 W m-2, 70 h drug-free, read-out: IC50 3D Irradiated

What does the source list for `Cc1ccc(-c2cc3[n+]4c(c2)-c2cccc[n+]2[Ir-3]42([Cl])([c]4ccsc4-c4n(Cc5ccc(C(F)(F)F)cc5)c5ccccc5[n+]42)[n+]2ccccc2-3)cc1.F[P-](F)(F)(F)(F)F` [Ir1]?
PI (phototoxicity index) 2D (U87MG cells): 3.5; IC50 (U87MG cells; [2]): 4.3 ± 0.1 µM; IC50 (U87MG cells; [3]): 1.3 ± 0.1 µM; PI (phototoxicity index) 3D (U87MG spheroids): 2.9; IC50 (U87MG spheroids; [4]): 16.4 ± 0.2 µM; IC50 (U87MG spheroids; [5]): 5.7 ± 0.7 µM; TMI (3D/2D) (U87MG spheroids): 4.4

For `Cc1ccc(-c2cc3[n+]4c(c2)-c2cccc[n+]2[Ir-3]42([Cl])([c]4ccccc4-c4n(Cc5ccc(C(F)(F)F)cc5)c5ccccc5[n+]42)[n+]2ccccc2-3)cc1.F[P-](F)(F)(F)(F)F` [Ir2], which “PI (phototoxicity index) 2D” value (U87MG cells) is on record?
Its value is 16.

What about the IC50 (U87MG cells; [2]) of the same compound?
The IC50 was 6.9 ± 0.4 µM.

What about the IC50 (U87MG cells; [3]) of the same compound?
The IC50 was 0.43 ± 0.02 µM.

What about the “PI (phototoxicity index) 3D” value (U87MG spheroids) of the same compound?
Its value is 3.0.

And the IC50 (U87MG spheroids; [4])?
The IC50 was 14.9 ± 0.5 µM.

And the IC50 (U87MG spheroids; [5])?
Its IC50 is 5 ± 0.2 µM.

And the “TMI (3D/2D)” value (U87MG spheroids)?
The value was 11.6.

Which “PI (phototoxicity index) 2D” value (U87MG cells) does the source give for `Cc1ccc(-c2cc3[n+]4c(c2)-c2cccc[n+]2[Ir-3]42([Cl])([c]4ccccc4-c4n(C)c5ccccc5[n+]42)[n+]2ccccc2-3)cc1.F[P-](F)(F)(F)(F)F` [Ir6] here?
The value was 23.

What about the IC50 (U87MG cells; [2]) of the same compound?
The IC50 was 23.9 ± 3.1 µM.

And the IC50 (U87MG cells; [3])?
Its IC50 is 1 ± 0.1 µM.

And the “PI (phototoxicity index) 3D” value (U87MG spheroids)?
Its value is 3.1.

What about the IC50 (U87MG spheroids; [4]) of the same compound?
Its IC50 is 26 ± 5.1 µM.

And the IC50 (U87MG spheroids; [5])?
The IC50 was 8.3 ± 1.1 µM.

What about the “TMI (3D/2D)” value (U87MG spheroids) of the same compound?
Its value is 8.3.

With `Cc1ccc(-c2cc3[n+]4c(c2)-c2cccc[n+]2[Ir-3]42([Cl])([c]4cc5ccccc5cc4-c4n(C)c5ccccc5[n+]42)[n+]2ccccc2-3)cc1.F[P-](F)(F)(F)(F)F` [Ir7] as the compound, how does the “PI (phototoxicity index) 2D” value (U87MG cells) read?
The value was 4.7.

And the IC50 (U87MG cells; [2])?
The IC50 was 7.1 ± 0.4 µM.

What about the IC50 (U87MG cells; [3]) of the same compound?
Its IC50 is 1.5 ± 0.2 µM.

What about the “PI (phototoxicity index) 3D” value (U87MG spheroids) of the same compound?
Its value is 1.6.

And the IC50 (U87MG spheroids; [4])?
The IC50 was 10.8 ± 1.6 µM.

What about the IC50 (U87MG spheroids; [5]) of the same compound?
Its IC50 is 6.7 ± 0.6 µM.

What about the “TMI (3D/2D)” value (U87MG spheroids) of the same compound?
Its value is 4.5.

With `Cc1ccc(-c2cc3[n+]4c(c2)-c2cccc[n+]2[Ir-3]42([Cl])([c]4ccsc4-c4n(C)c5ccccc5[n+]42)[n+]2ccccc2-3)cc1.F[P-](F)(F)(F)(F)F` [Ir8] as the compound, how does the “PI (phototoxicity index) 2D” value (U87MG cells) read?
The value was 12.

And the IC50 (U87MG cells; [2])?
Its IC50 is 9.3 ± 0.9 µM.

And the IC50 (U87MG cells; [3])?
The IC50 was 0.8 ± 0.05 µM.

And the “PI (phototoxicity index) 3D” value (U87MG spheroids)?
Its value is 2.8.

What about the IC50 (U87MG spheroids; [4]) of the same compound?
Its IC50 is 19.3 ± 0.7 µM.

What about the IC50 (U87MG spheroids; [5]) of the same compound?
Its IC50 is 7 ± 0.9 µM.

What about the “TMI (3D/2D)” value (U87MG spheroids) of the same compound?
The value was 8.8.

Which results are given for `Cc1ccc(-c2cc3[n+]4c(c2)-c2cccc[n+]2[Ir-3]42([Cl])([c]4c(ccc5c4OCO5)-c4n(C)c5ccccc5[n+]42)[n+]2ccccc2-3)cc1.F[P-](F)(F)(F)(F)F` [Ir9]?
PI (phototoxicity index) 2D (U87MG cells): 4.6; IC50 (U87MG cells; [2]): 6.2 ± 0.7 µM; IC50 (U87MG cells; [3]): 1.3 ± 0.2 µM; PI (phototoxicity index) 3D (U87MG spheroids): 2.6; IC50 (U87MG spheroids; [4]): 18.9 ± 0.2 µM; IC50 (U87MG spheroids; [5]): 7.3 ± 0.3 µM; TMI (3D/2D) (U87MG spheroids): 5.6

Which “stability in the dark” value [1] does the source give for `COC(=O)c1ccc2c(c1)[n+]1c(n2Cc2ccc(C(F)(F)F)cc2)-c2cccc[c]2[Ir-3]123([Cl])[n+]1ccccc1-c1cc(-c4ccc(C)cc4)cc([n+]12)-c1cccc[n+]13.F[P-](F)(F)(F)(F)F` [Ir10] here?
The value was “stable”.

What about the “PI (phototoxicity index) 2D” value (U87MG cells) of the same compound?
The value was 15.5.

What about the IC50 (U87MG cells; [2]) of the same compound?
The IC50 was 34.2 ± 5.3 µM.

And the IC50 (U87MG cells; [3])?
The IC50 was 2.2 ± 0.9 µM.

What about the “PI (phototoxicity index) 3D” value (U87MG spheroids) of the same compound?
Its value is 3.9.

What about the IC50 (U87MG spheroids; [4]) of the same compound?
Its IC50 is 41.3 ± 1.6 µM.

What about the IC50 (U87MG spheroids; [5]) of the same compound?
The IC50 was 10.5 ± 0.6 µM.

What about the “TMI (3D/2D)” value (U87MG spheroids) of the same compound?
Its value is 4.8.

From publication PMC12261233, “Photoactivatable Cyclometalated Ir(III) Compound Penetrates the Blood-Brain Barrier in 3D Spheroidal and Advanced 3D Organoid Models of Inherently Resistant and Aggressive Brain Tumors” (ACS Pharmacology & Translational Science, 2025)
